Here are results for four molecules from PubChem BioAssay AID1259407 (Chemical Carcinogenesis Research Information System (CCRIS), 2018).

Molecules are shown by their SMILES. The source made the active and inactive calls. The rule behind the calls is not given here.

For the data set, the system named is CCRIS mutagenicity, Ames/micronucleus/aberration tests. The data set can be described thus: CCRIS mutagenicity studies.
Setting [1] is: Test System: AMES SALMONELLA TYPHIMURIUM, Strain/Indicator: TA98, Metabolic Activation: NONE, Method: PREINCUBATION
[2] abbreviates: Test System: AMES SALMONELLA TYPHIMURIUM, Strain/Indicator: TA100, Metabolic Activation: NONE, Method: PREINCUBATION
Where [3] appears, read: Test System: AMES SALMONELLA TYPHIMURIUM, Strain/Indicator: TA100, Metabolic Activation: NONE, Method: STANDARD PLATE.

For `Oc1ccc2ccccc2c1N=Nc1ccccc1`, the mutagenic call is “inactive; negative” (End Point: IN VITRO CHROMOSOMAL ABERRATIONS, Test System: CHO CELLS, Metabolic Activation: NONE); “inactive; negative” (End Point: IN VITRO CHROMOSOMAL ABERRATIONS, Test System: CHO CELLS, Metabolic Activation: RAT, LIVER, S-9, AROCLOR 1254); “inactive; negative” (Test System: AMES SALMONELLA TYPHIMURIUM, Strain/Indicator: TA97, Metabolic Activation: HAMSTER, LIVER, S-9, AROCLOR 1254 (10%), Method: PREINCUBATION); “inactive; negative” (Test System: AMES SALMONELLA TYPHIMURIUM, Strain/Indicator: TA97, Metabolic Activation: NONE, Method: PREINCUBATION); “active; positive” (Test System: AMES SALMONELLA TYPHIMURIUM, Strain/Indicator: TA97, Metabolic Activation: RAT, LIVER, S-9, AROCLOR 1254 (10%), Method: PREINCUBATION); “inactive; negative” (Test System: AMES SALMONELLA TYPHIMURIUM, Strain/Indicator: TA98, Metabolic Activation: HAMSTER, LIVER, S-9, AROCLOR 1254 (10%), Method: PREINCUBATION). In addition, the mutagenic call is, setting by setting: under setting [1], “inactive; negative”; (Test System: AMES SALMONELLA TYPHIMURIUM, Strain/Indicator: TA98, Metabolic Activation: RAT, BLADDER, S-9, PCB, Method: FLUCTUATION TEST) “inactive; negative”; (Test System: AMES SALMONELLA TYPHIMURIUM, Strain/Indicator: TA98, Metabolic Activation: RAT, LIVER, S-9, AROCLOR 1254 (10%), Method: PREINCUBATION) “active; positive”; (Test System: AMES SALMONELLA TYPHIMURIUM, Strain/Indicator: TA100, Metabolic Activation: HAMSTER, LIVER, S-9, AROCLOR 1254 (10%), Method: PREINCUBATION) “inactive; negative”; under setting [2], “inactive; negative”; (Test System: AMES SALMONELLA TYPHIMURIUM, Strain/Indicator: TA100, Metabolic Activation: RAT, BLADDER, S-9, PCB, Method: FLUCTUATION TEST) “inactive; negative”. Also, the mutagenic call (Test System: AMES SALMONELLA TYPHIMURIUM, Strain/Indicator: TA100, Metabolic Activation: RAT, LIVER, S-9, AROCLOR 1254 (10%), Method: PREINCUBATION) was “inactive; negative”; the mutagenic call (Test System: AMES SALMONELLA TYPHIMURIUM, Strain/Indicator: TA1535, Metabolic Activation: HAMSTER, LIVER, S-9, AROCLOR 1254 (10%), Method: PREINCUBATION) is “inactive; negative”; the mutagenic call (Test System: AMES SALMONELLA TYPHIMURIUM, Strain/Indicator: TA1535, Metabolic Activation: NONE, Method: PREINCUBATION) was “inactive; negative”; the mutagenic call (Test System: AMES SALMONELLA TYPHIMURIUM, Strain/Indicator: TA1535, Metabolic Activation: RAT, LIVER, S-9, AROCLOR 1254 (10%), Method: PREINCUBATION) is “inactive; negative”; the mutagenic call (Test System: AMES SALMONELLA TYPHIMURIUM, Strain/Indicator: TA1538, Metabolic Activation: HAMSTER, LIVER, S-9, AROCLOR 1254, Method: STANDARD PLATE) was “active; positive”.
With `C1=COc2c(c3cc4ccccc4cc3c3ccccc23)C=C1`, the mutagenic call (Test System: AMES SALMONELLA TYPHIMURIUM, Strain/Indicator: TA100, Metabolic Activation: RAT, LIVER, S-9, AROCLOR 1254, Method: PREINCUBATION) is “active; positive”.
For the molecule `Cc1cc(=O)n(-c2ccccc2)n1C`, the mutagenic call is, setting by setting: (Test System: AMES SALMONELLA TYPHIMURIUM, Strain/Indicator: TA97, Metabolic Activation: NONE, Method: STANDARD PLATE) “inactive; negative”; (Test System: AMES SALMONELLA TYPHIMURIUM, Strain/Indicator: TA97, Metabolic Activation: RAT, LIVER, S-9, AROCLOR 1254, Method: STANDARD PLATE) “inactive; negative”; (Test System: AMES SALMONELLA TYPHIMURIUM, Strain/Indicator: TA97A, Metabolic Activation: NONE, Method: STANDARD PLATE) “inactive; negative”; (Test System: AMES SALMONELLA TYPHIMURIUM, Strain/Indicator: TA97A, Metabolic Activation: RAT LIVER S-9, PHENOBARBITAL, Method: STANDARD PLATE) “inactive; negative”; (Test System: AMES SALMONELLA TYPHIMURIUM, Strain/Indicator: TA98, Metabolic Activation: GUINEA PIG, LIVER, S-9, PCB, Method: PREINCUBATION) “inactive; negative”; (Test System: AMES SALMONELLA TYPHIMURIUM, Strain/Indicator: TA98, Metabolic Activation: HAMSTER, LIVER, S-9, PCB, Method: PREINCUBATION) “inactive; negative”. Further, the mutagenic call runs as follows: (Test System: AMES SALMONELLA TYPHIMURIUM, Strain/Indicator: TA98, Metabolic Activation: MOUSE, LIVER, S-9, PCB, Method: PREINCUBATION) “inactive; negative”; under setting [1], “inactive; negative”; (Test System: AMES SALMONELLA TYPHIMURIUM, Strain/Indicator: TA98, Metabolic Activation: NONE, Method: STANDARD PLATE) “inactive; negative”; (Test System: AMES SALMONELLA TYPHIMURIUM, Strain/Indicator: TA98, Metabolic Activation: RAT LIVER S-9, PHENOBARBITAL, Method: STANDARD PLATE) “inactive; negative”; (Test System: AMES SALMONELLA TYPHIMURIUM, Strain/Indicator: TA98, Metabolic Activation: RAT, LIVER, S-9, AROCLOR 1254, Method: STANDARD PLATE) “inactive; negative”; (Test System: AMES SALMONELLA TYPHIMURIUM, Strain/Indicator: TA98, Metabolic Activation: RAT, LIVER, S-9, PCB, Method: PREINCUBATION) “inactive; negative”. Moreover, the mutagenic call is “inactive; negative” (Test System: AMES SALMONELLA TYPHIMURIUM, Strain/Indicator: TA100, Metabolic Activation: GUINEA PIG, LIVER, S-9, PCB, Method: PREINCUBATION); “inactive; negative” (Test System: AMES SALMONELLA TYPHIMURIUM, Strain/Indicator: TA100, Metabolic Activation: HAMSTER, LIVER, S-9, PCB, Method: PREINCUBATION); “inactive; negative” (Test System: AMES SALMONELLA TYPHIMURIUM, Strain/Indicator: TA100, Metabolic Activation: MOUSE, LIVER, S-9, PCB, Method: PREINCUBATION); “inactive; negative” under setting [2]; “inactive; negative” under setting [3]; “inactive; negative” (Test System: AMES SALMONELLA TYPHIMURIUM, Strain/Indicator: TA100, Metabolic Activation: RAT LIVER S-9, PHENOBARBITAL, Method: STANDARD PLATE). In addition, the mutagenic call by setting is: (Test System: AMES SALMONELLA TYPHIMURIUM, Strain/Indicator: TA100, Metabolic Activation: RAT, LIVER, S-9, AROCLOR 1254, Method: STANDARD PLATE) “inactive; negative”; (Test System: AMES SALMONELLA TYPHIMURIUM, Strain/Indicator: TA100, Metabolic Activation: RAT, LIVER, S-9, PCB, Method: PREINCUBATION) “inactive; negative”; (Test System: AMES SALMONELLA TYPHIMURIUM, Strain/Indicator: TA102, Metabolic Activation: NONE, Method: STANDARD PLATE) “inactive; negative”; (Test System: AMES SALMONELLA TYPHIMURIUM, Strain/Indicator: TA102, Metabolic Activation: RAT LIVER S-9, PHENOBARBITAL, Method: STANDARD PLATE) “inactive; negative”; (Test System: AMES SALMONELLA TYPHIMURIUM, Strain/Indicator: TA102, Metabolic Activation: RAT, LIVER, S-9, AROCLOR 1254, Method: STANDARD PLATE) “inactive; negative”; (Test System: AMES SALMONELLA TYPHIMURIUM, Strain/Indicator: TA104, Metabolic Activation: NONE, Method: STANDARD PLATE) “inactive; negative”. Moreover, the mutagenic call (Test System: AMES SALMONELLA TYPHIMURIUM, Strain/Indicator: TA104, Metabolic Activation: RAT, LIVER, S-9, AROCLOR 1254, Method: STANDARD PLATE) was “inactive; negative”.
With `Cc1c2cc(CO)ccc2nc2c1c1c(c3ccccc32)O1`, the mutagenic call under setting [3] was “inactive; negative”.
